Values quoted from earlier work as cited in patent US12606719B2, “Methods and compositions comprising biodegradable cyanoacrylates” (FEMASYS, INC., priority 2017, dated 2026).

Conditions: versus cyanoacrylates that degrade by chain scission

For methoxypropyl cyanoacrylate, the hydrophilicity is given as “more hydrophilic”.
